Columns and labels:
Assay type in all cases: in vivo, souris
leucémie L1210 = test: Therapeutic effect on L1210 leukemia in mice, single intraperitoneal injection 24 h after intraperitoneal tumour inoculation; conditions: for Augmentation survie traitées/contrôle x 100 / Survie moyenne en jours des souris traitées ± erreur standard. / % de cellules tumorales tuées par le traitement: single i.p. injection, inoculum 10^5 L1210 cells; for % de cellules tumorales tuées par le traitement: calculated by Skipper method; for Nombre d'animaux guéris: cured = survival more than 45 days after inoculation; for index chimiothérapeutique: leucémie L1210, read from Table VI; for fraction des cellules survivantes N/No après traitement en fonction de la dose (fraction de la dose infra-létale DLo): figure 2, comparison with dérivé 34 (DIE)
From the text: Afin de tester l'activité antitumorale des composés décrits plus haut, on a utilisé en premier lieu des leucémies murines P388 et L1210. La leucémie P388 est considérée comme très sensible et permet une première sélection. La leucémie L1210 est plus résistante et plus sélective. Une substance ayant une grande activité sur la leucémie L1210 a une grande chance d'être active en clinique humaine (J.M. VENDITTI, Relevance of transplantable animal tumor systems to the Selection of new agents for clinical trial in pharmacologi- cal basis of cancer chemotherapy. The University of Texas ed. Williams and Wilkins, publ. 1975, Baltimore USA) .
D'autre part, la tumeur expérimentale qu'est la leucémie L1210 de la souris est en effet couramment utilisée pour l'évaluation de tous les composés antitumoraux actuellement mis en oeuvre en thérapeutique humaine, ainsi qu'il est décrit, par exemple par C.C. ZUBROD dans Proc. Nat. Acad. Sci. USA 69, 1972, p 1042-1047. Le système tumoral ainsi constitué expérimentalement permet une évaluation quantitative très précise de l'activité du composé testé, et, par conséquent aussi, une comparaison objective entre les activités respectives de différents composés, par exemple selon les méthodes décrites par R.E. SKIPPER, F.M. SCHABEL Jr. et W.S. WILCOX dans Cancer Chemother. Rep., 35, 1964, p 1-111 et 45, 1965, p 5-28.
(§1) En pratique, on a utilisé des souris ayant reçu par voie intrapéritonéale un inoculum de cellules de leucémie L1210 et ayant été, pour la moitié d'entre elles, soumises 24 heures après ladite inoculation tumorale à une injection intrapéritonéale d'une dose unique de l'un des composés à tester : l'autre moitié des souris a reçu une injection d'un volume identique d'un solvant inactif et servait de série témoin. On a réparti les souris au hasard dans chaque série expérimentale. Une première expérimentation de routine a permis de déterminer la mortalité par toxicité et de fixer ainsi les doses infra-létales.
Conformément à la convention en usage dans ce domaine, on considérait comme guéris les animaux qui survivaient plus de 45 jours après l'inoculation de cellules tumorales.
On a ainsi pu déterminer la mortalité par toxicité sous l'effet d'une injection unique de l'un des composés à différentes doses (doses infra-létales, DL 50 et DL 100) et évaluer le taux de survie du groupe d'animaux auxquels on n'avait injecté qu'une dose infra-létale d'un composé selon l'invention.
On a calculé le taux de survie à partir d'une analyse statistique des résultats expérimentaux, par comparaison avec les résultats obtenus avec la série témoin, selon les méthodes bien connues de Mann-Whitey et de Wilcoxon; le pourcentage de cellules leucémiques tuées par le traitement réalisé était calculé par la méthode décrite par H.E. SKIPPER et coll. dans les articles cités plus haut, en prenant pour base, suivant le cas, soit l'augmentation de la survie moyenne en l'absence de survivants, soit le pourcentage de survivants.
Pour l'évaluation de l'activité thérapeutique des composés selon l'invention, on a exprimé les doses dudit composé en les rapportant à la dose infra-létale […], que l'on a posée égale à 1. Cette dose infra-létale s'est en effet avérée plus facile à déterminer pour les composés de l'invention que la DL 10, dont elle est d'ailleurs très voisine et qui est habituellement prise comme référence pour l'évaluation de l'activité thérapeutique de composés à effet antitumoral (voir H.E. SKIPPER et coll., ouvrages cités).

mélanome B 16 = test: Survival of mice bearing B 16 melanoma, identical protocol; conditions: same doses
From the text: as §1
(§2) En outre, ces composés présentent une forte activité sur le mélanome B 16 et la tumeur de Lewis, pour les mêmes doses, le protocole étant identique. A titre d'exemple, sur le mélanome B 16, le dérivé 41 augmente de 15 jours la survie des souris traitées; sur la tumeur de Lewis, l'augmentation de survie induite pour ce même dérivé est de 8 jours avec un survivant.

tumeur de Lewis = test: Survival of mice bearing Lewis tumour, identical protocol; conditions: same doses
From the text: as §1, §2

[1] = dose 0.04 of the infra-lethal dose
[2] = dose 0.4 of the infra-lethal dose
[3] = dose 0.8 of the infra-lethal dose
[4] = dose 0.02 of the infra-lethal dose
[5] = dose 0.1 of the infra-lethal dose
[6] = dose 0.2 of the infra-lethal dose
[7] = dose 0.25 of the infra-lethal dose
[8] = dose 0.3 of the infra-lethal dose
[9] = dose 1/5 of the infra-lethal dose

Row | Structure (SMILES) | Augmentation survie traitées/contrôle x 100 (leucémie L1210; [2]) | Survie moyenne en jours des souris traitées ± erreur standard. (leucémie L1210; [2]) | % de cellules tumorales tuées par le traitement (leucémie L1210; [2]) | index chimiothérapeutique (leucémie L1210) | fraction des cellules survivantes N/No après traitement en fonction de la dose (fraction de la dose infra-létale DLo) (leucémie L1210) | Augmentation survie traitées/contrôle x 100 (leucémie L1210; [4]) | Survie moyenne en jours des souris traitées ± erreur standard. (leucémie L1210; [4]) | % de cellules tumorales tuées par le traitement (leucémie L1210; [4]) | Augmentation survie traitées/contrôle x 100 (leucémie L1210; [6]) | Survie moyenne en jours des souris traitées ± erreur standard. (leucémie L1210; [6]) | % de cellules tumorales tuées par le traitement (leucémie L1210; [6]) | % des cellules leucémiques tuées (leucémie L1210; [9]) | also measured
1 | COc1ccc2c(c1)c1c3c[n+](CCN4CCC(C5CCN(CC[n+]6ccc7ccc8c(c7c6)c6cc(OC)ccc6n8C)CC5)CC4)ccc3ccc1n2C [Dérivé 41, Dichlorurede 1,1' bis 2-(2-méthyl-7-méthoxy-10,7-H-pyrido [4,3-c]carbazolium) éthyl 4,4' bispipéridine] | 140 | 11.8 ± 0.9 jours | 99.8% | extrêmement élevé |  |  |  |  |  |  |  |  | Augmentation survie traitées/contrôle x 100 (leucémie L1210; [1]): 143; Survie moyenne en jours des souris traitées ± erreur standard. (leucémie L1210; [1]): 11.9 ± 1.2 jours; % de cellules tumorales tuées par le traitement (leucémie L1210; [1]): 99.8%; Nombre d'animaux guéris (leucémie L1210; [2]): 1/15; Augmentation survie traitées/contrôle x 100 (leucémie L1210; [3]): 155; Survie moyenne en jours des souris traitées ± erreur standard. (leucémie L1210; [3]): 12.9 ± 1.9 jours; % de cellules tumorales tuées par le traitement (leucémie L1210; [3]): 99.97%; % des cellules leucémiques tuées (leucémie L1210; dose 1/15 of the infra-lethal dose): 91,8%; augmentation de la survie des souris traitées (mélanome B 16): 15 jours; augmentation de survie (tumeur de Lewis): 8 jours; survivant (tumeur de Lewis): un survivant
2 | O=NN(CCCl)C(=O)NCCCl [bischloréthylnitrosourée (BCNU), bischloréthylnitrosourée, reference compound] |  |  |  |  | ne sont actives qu'à des doses bien supérieures à celles du dérivé 34 |  |  |  |  |  |  |  | 
3 | COc1ccc2[nH]c3ccc4cc[n+](CCN5CCC(C6CCN(CC[n+]7ccc8ccc9[nH]c%10ccc(OC)cc%10c9c8c7)CC6)CC5)cc4c3c2c1 [Dérivé 34, Dichlorurede 1'1'-bis 2-(2-méthoxy-10,7-H-pyrido[4,3-c]carbazolium)éthy14,4' bispipéridine] | 182 | 18.1 ± 4.5 jours | 99.999% | extrêmement élevé |  | 128 | 12.2 ± 0.9 jours | 98% | 144 | 14.3 ± 2.6 jours | 99.97% | 99,97% | Nombre d'animaux guéris (leucémie L1210; [5]): 1/15; Augmentation survie traitées/contrôle x 100 (leucémie L1210; [5]): 137; Survie moyenne en jours des souris traitées ± erreur standard. (leucémie L1210; [5]): 13.6 ± 2.9 jours; % de cellules tumorales tuées par le traitement (leucémie L1210; [5]): 94.8%; Augmentation survie traitées/contrôle x 100 (leucémie L1210; [7]): 216; Survie moyenne en jours des souris traitées ± erreur standard. (leucémie L1210; [7]): 18.6 ± 4.5 jours; % de cellules tumorales tuées par le traitement (leucémie L1210; [7]): 99.999%; Augmentation survie traitées/contrôle x 100 (leucémie L1210; [8]): 191; Survie moyenne en jours des souris traitées ± erreur standard. (leucémie L1210; [8]): 17.6 ± 4.5 jours; % de cellules tumorales tuées par le traitement (leucémie L1210; [8]): 99.999%
4 | Oc1ccc2[nH]c3ccc4cc[n+](CCN5CCC(C6CCN(CC[n+]7ccc8ccc9[nH]c%10ccc(O)cc%10c9c8c7)CC6)CC5)cc4c3c2c1 [Dérivé 40] | 167 | 13.2 ± 1.9 jours | 99.994% | extrêmement élevé |  | 111 | 9.4 ± 1.2 jours | 94% | 153 | 12.9 ± 1.5 jours | 99.47% | 99,97% | 
5 | O=P1(N(CCCl)CCCl)NCCCO1 (stereo not shown) [cyclophosphamide, reference compound] |  |  |  |  | ne sont actives qu'à des doses bien supérieures à celles du dérivé 34 |  |  |  |  |  |  |  | 
